The values below come from patent US20110117627A1, “REGULATION OF APOPTOSIS BY NEURAL SPECIFIC SPLICE VARIANTS OF IG20” (The Board of Trustees of the University of Illinois, priority 2008, published 2011).

Common to all, as to format: cell-based, human
In assay [1] the test system is caspase-8. Nature of the assay: Caspase-8 inhibition, western blot. The settings on record: SK-N-SH cells, 40 μM and 80 μM. Here is the method: (§1) FIG. 6. Down modulation of KIAA0358 or selective expression of IG20-SV4 enhances apoptosis through expression/activation of caspase-8 in SK-N-SH cells. (A) Effects of cycloheximide on expression/activation of caspase-8. Three days post-transduction with shRNA-expressing virus, SK-N-SH cells were treated with 10 μg/ml cycloheximde (a protein synthesis inhibitor) for two days. Whole cell lysates were subjected to western blot analysis. (B) Caspase-8 reporter assay. SK-N-SH cells were cotransfected with pGL4.17-caspase-8 promoter vector, pSV40-Renilla luciferase vector and pEYFP-C1/or pEYFP-IG20-SV4 using Lipofectamine2000, 48 hrs later, cells were collected and analyzed for luciferase activity with the Dual-Luciferase Reporter Assay System (Promega). (C) and (D) Effects of caspase-8 inhibition. Three days post-transduction with shRNA-expressing virus, SK-N-SH cells were treated with 40 μM and 80 μM of Z-1ETD-FMK (a caspase 8 inhibitor) for two days. […]
(§2) Western Blot Analysis. […] The protein content was determined using a dye-binding microassay (Bio-Rad), and after boiling the samples for 2 min in a 1× SDS protein sample buffer, 20 μg of protein per lane was loaded and separated on 10% SDS-polyacrylamide gel. […] Proteins were detected using an enhanced chemiluminescence plus western blotting detection system (Amersham, UK). […]
(In general: A western blot detects proteins with antibodies after separation by electrophoresis.)

Assay [2] deals with SK-N-SH cells. Nature of the assay: Caspase-8 inhibition, apoptosis by Annexin V-PE/7-AAD. The settings on record: 40 μM and 80 μM for two days. Here is the method: FIG. 6. Down modulation of KIAA0358 or selective expression of IG20-SV4 enhances apoptosis through expression/activation of caspase-8 in SK-N-SH cells. (A) Effects of cycloheximide on expression/activation of caspase-8. Three days post-transduction with shRNA-expressing virus, SK-N-SH cells were treated with 10 μg/ml cycloheximde (a protein synthesis inhibitor) for two days. Whole cell lysates were subjected to western blot analysis. (B) Caspase-8 reporter assay. SK-N-SH cells were cotransfected with pGL4.17-caspase-8 promoter vector, pSV40-Renilla luciferase vector and pEYFP-C1/or pEYFP-IG20-SV4 using Lipofectamine2000, 48 hrs later, cells were collected and analyzed for luciferase activity with the Dual-Luciferase Reporter Assay System (Promega). (C) and (D) Effects of caspase-8 inhibition. Three days post-transduction with shRNA-expressing virus, SK-N-SH cells were treated with 40 μM and 80 μM of Z-1ETD-FMK (a caspase 8 inhibitor) for two days. Collected cells were either subjected to Annexin V-PE/7-AAD stain for FACS analysis (C) or western blot analysis (D). (C) Percentage apoptosis in cells transduced with different shRNAs in the presence or absence of the caspase inhibitor. The P-value was **P<0.01 for Z-IETD-FMK treated vs untreated. […] Representative data are from three independent experiments.
Caspase-8 inhibition. […]

Assay [3] deals with caspase-8. Nature of the assay: Cycloheximide treatment of transduced SK-N-SH cells, western blot of caspase-8. The settings on record: 10 μg/mL cycloheximide. How it is done: as §1, with “(Promega).” for “(Promega). (C) and (D) Effects of caspase-8 inhibition. Three days post-transduction with shRNA-expressing virus, SK-N-SH cells were treated with 40 μM and 80 μM of Z-1ETD-FMK (a caspase 8 inhibitor) for two days.”
To determine whether the increased apoptosis induced utilizing 34+13L shRNA was due to modulation of the expression of caspase-8, the expression of caspase-8 transcripts was measured in SK-N-SH cells treated with the different combinations of siRNAs. […]
as §2

“Also recorded” adds a separate entry of the source. Where a SMILES comes first, the peptide text is derived from it. The star is where a group is joined. Cbz = O=C(OCc1ccccc1)*; CH2F = FC*

Regarding `CC[C@H](C)[C@H](NC(=O)OCc1ccccc1)C(=O)N[C@@H](CCC(=O)OC)C(=O)N[C@H](C(=O)N[C@@H](CC(=O)OC)C(=O)CF)[C@@H](C)O` [Z-IETD-FMK] (Cbz-IE(OMe)TD(OMe)-CH2F), the “effect on caspase-8 expression (western blot)” value in assay [1] is given as “inhibitory effect”. In assay [2], the “apoptosis in cells treated with shRNA targeting 34E” value is given as “did not significantly affect apoptosis” and the “apoptotic effect caused by down-modulation of KIAA0358” value was “significantly attenuated the apoptotic effect”.
On to `C[C@@H]1C[C@@H]([C@H](O)CC2CC(=O)NC(=O)C2)C(=O)[C@@H](C)C1` [cycloheximide], for which the “expression of caspase-8 protein” value in assay [3] is “inhibited the expression of caspase-8 protein; also recorded: the induced caspase-8 was inhibited”.
